Experimental data as given in patent US4603130A, “1-substituted-2-(piperazinyl or homopiperazinyl)-benzimidazole compounds and pharmaceutical composition” (Kanebo, Ltd., priority 1983, dated 1986).
Structures can show the parent of a compound that is named as a salt.

Experiments:
[1] = system: histamine-induced lethality; assay: Protecting activity against histamine-induced lethality (similar to Labelle-Tislow method), oral; format: in vivo, Hartley strain male and female guinea pigs; conditions: Cavia porcellus, 2 h, guinea pig, p.o. 1 h before histamine 1.1 mg/kg i.v., survival after two hours, Probit method, Example 9 as free base, others as fumarate
Method: 1. Protecting activity against histamine-induced lethality:
(3) Homochlorcyclizine hydrochloride (reference compound)
The test was carried out by a method similar to Labelle-Tislow method [cf. J. Pharmacol. Exp. Ther., 113, 72, 1955]. […] After one hour, histamine (1.1 mg/kg, in a physiological saline solution) was injected to the animals in cephalic vein. After two hours, the number of live guinea pigs was counted, and therefrom ED50 of the compounds was calculated according to Probit method.

in vivo = conditions: mouse, in vivo, po; mice, p.o., deaths within one week; Weil's method; Example 9 as free base, others as fumarate; read-out: Acute Toxicity LD50
Text: (§1) 2. Acute toxicity (LD50):
(§2) The same compounds as used in the above protecting activity against histamine were used.

mice = assay: in vivo; conditions: p.o., deaths within one week, Weil's method, Example 9 as free base, others as fumarate, 10080 min
Text: as §1, §2

[2] = system: hexobarbital-induced sleep; assay: Potentiating effect on hexobarbital-induced sleep in mice; format: in vivo; conditions: 25 mg/kg (p.o.)
Text: Besides, the conventional antihistaminics have side-effect such as hypnotic activity.

[3] = among compounds of U.S. Pat. No. 3,423,413; cited from earlier work

SMILES | ED50 [1] [mg/kg] | LD50 at 168 h (in vivo) [mg/kg] | Acute Toxicity LD50 (mice) [mg/kg] | potentiating effect on hexobarbital-induced sleep [2] | anti-allergic activity [3]
CCCN1CCN(Cc2nc3ccccc3n2CCOCC)CC1 [Example 6, 1-(2-ethoxyethyl)-2-(4-n-propyl-1-piperazinyl)methylbenzimidazole] | 0.0095 | 303 |  |  | 
CCOCCn1c(CN2CCCN(C)CC2)nc2ccccc21 [Example 4, 1-(2-ethoxyethyl)-2-(4-methyl-1-homopiperazinyl)methylbenzimidazole] | 0.0092 | 990 |  |  | 
C#CCOCCn1c(CN2CCN(C)CC2)nc2ccccc21 [Example 11, 1-(2-propargyloxyethyl)-2-(4-methyl-1-piperazinyl)methylbenzimidazole] | 0.0023 | 891 |  |  | 
CCOCCn1c(CN2CCN(CC)CC2)nc2ccccc21 [Example 5, 1-(2-ethoxyethyl)-2-(4-ethyl-1-piperazinyl)methylbenzimidazole] | 0.0067 | 904 |  |  | 
CCOCCn1c(CN2CCN(CCO)CC2)nc2ccccc21 [Example 7, 1-(2-ethoxyethyl)-2-[4-(2-hydroxyethyl)-1-piperazinyl]methylbenzimidazole] | 0.004 | > 2000 |  |  | 
CN1CCCN(C(c2ccccc2)c2ccc(Cl)cc2)CC1 (stereo not drawn) [Homochlorcyclizine hydrochloride, reference compound] | 0.26 |  | 382 | showed remarkable potentiating effect | 
C#CCOCCn1c(CN2CCCN(C)CC2)nc2ccccc21 [Example 12, 1-(2-propargyloxyethyl)-2-(4-methyl-1-homopiperazinyl)methylbenzimidazole] | 0.017 | 524 |  |  | 
CCOCCn1c(CN2CCCNCC2)nc2ccccc21 [Example 2, 1-(2-ethoxyethyl)-2-(1-homopiperazinyl)methylbenzimidazole] | 0.014 | 1540 |  |  | 
CCOCCn1c(CN2CCN(C)CC2)nc2ccccc21 [Example 3, 1-(2-ethoxyethyl)-2-(4-methyl-1-piperazinyl)methylbenzimidazole] | 0.0026 | 789 |  |  | 
OCCN1CCN(Cc2nc3ccccc3n2Cc2ccc(F)cc2)CC1 [Compound A, 1-(4-fluorobenzyl)-2-[4-(2-hydroxyethyl)-1-piperazinyl]methylbenzimidazole, reference compound] | 0.026 | 440 |  |  | most potent anti-allergic activity
C=CCOCCn1c(CN2CCN(C)CC2)nc2ccccc21 [Example 10, 1-(2-allyloxyethyl)-2-(4-methyl-1-piperazinyl)methylbenzimidazole] | 0.0059 | 657 |  |  | 
C=COCCn1c(CN2CCN(C)CC2)nc2ccccc21 [Example 9, 1-(2-vinyloxyethyl)-2-(4-methyl-1-piperazinyl)methylbenzimidazole] | 0.0071 | 698 |  |  | 
CCCOCCn1c(CN2CCN(C)CC2)nc2ccccc21 [Example 8, 1-(2-n-propoxyethyl)-2-(4-methyl-1-piperazinyl)methylbenzimidazole] | 0.0059 | 1010 |  |  | 
CCOCCn1c(CN2CCNCC2)nc2ccccc21 [Example 1, 1-(2-ethoxyethyl)-2-(1-piperazinyl)methylbenzimidazole] | 0.0033 | > 2000 |  |  | 
